One may read the AC50 as the concentration giving half of the maximal activity seen.

Inconclusive results are not listed. Active and inactive are the calls of the source.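 Rule for the calls: active = signal-lowering compounds whose fitted half-maximal concentration is at most ten times their highest tested dose; inconclusive = flat fit between -30 and -70%, or poor fit; inactive = flat within 30%, signal rising, or potency beyond limit.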

Consider 85 compounds from PubChem BioAssay AID493130 (Broad Institute, 2011).

The first assay concerns the target POS-1 (Caenorhabditis elegans) binding to mex-3 RNA. Briefly: inhibitors of POS-1/mex-3 RNA binding, dose response, counter-screen for MEX-5 RNA-binding inhibitor project, biochemical, fluorescence polarization, cherry-picked samples, set 2 (AID 493130).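 Note: POS-1 as maltose binding protein fusion made in E. coli with FITC RNA.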 The note with it: POS-1/mex-3 RNA fluorescence polarization, 1 h. For orientation: The purpose of a counterscreen is to sort out artefacts and off-target activity.
Take `COCCCNC(=O)c1ccc2c3c(onc13)-c1ccccc1C2=O`: the AC50 was 0.186 µM. Same read-out and setting: with `COc1ccc(NC(=O)c2cccc(-c3ccc(O)cc3)c2)cn1` the figure was 3.93 µM; with `CN1CC=C2C(C#N)=C(N)C(C#N)(C#N)C(Cc3ccccc3)C2C1` (stereo not given), 6.58 µM.

`COc1ccc(NC(=S)NNc2ccc(S(=O)(=O)Nc3ccccc3C(=O)O)cc2[N+](=O)[O-])cc1`: the AC50 was 4.53 µM. On to `Cc1cc(O)c(-c2cc(O)c(C)cc2O)cc1O`, for which the AC50 was 10.1 µM. As for `Cc1cc(C(=O)NNC(=O)CCCCC(=O)NNC(=O)c2cc(C)[nH]n2)n[nH]1`, the AC50 is > 10 µM (inactive).

Turning to `CN(C)c1ccc2nc3c(=O)[nH]c(=O)nc-3n(CC(O)C(O)C(O)CO)c2c1` (stereo not given), the AC50 was 9.63 µM. Regarding `Cc1ccc(C)n1-c1sccc1C(=O)O`, the AC50 is 6.08 µM. Still for that read-out and setting: the figure for `O=c1nc2c(O)cccn2c2c1c(=O)[nH]c1ccccc12` is 2.46 µM; for `Brc1ccc(C2=CC(c3cccs3)n3ncnc3N2)cc1` (stereo not given) it is 1.4 µM. Take `CCc1ccc[n+](-c2[nH]c(=O)sc2/C=N/NC([S-])=Nc2ccccc2)c1`: the AC50 is 2.54 µM.

The same assay, now with this note: POS-1/mex-3 RNA fluorescence polarization, 1 h; at 10 µM (top of the series).
Consider `C=CCn1c(O)c(N=NC(=O)CNC(=O)/C=C/c2ccco2)c2ccccc21`, for which the “activity change, negative = inhibition” value was “inactive”. Take `COc1ccc(OC)c(/C=C/C(=O)Nc2ccc(OC)nc2)c1`: the “activity change, negative = inhibition” value was “inactive”. Consider `CCOC(=O)CNc1nc2ccccc2n2c(C)nnc12`, for which the “activity change, negative = inhibition” value is “inactive”. With `COc1ccc2cc(/C=C3\SC(=S)NC3=O)c(N3CCOCC3)nc2c1`, the “activity change, negative = inhibition” value was “inactive”.

`CC(=Nc1ccc(C)cc1)c1sc2ccccc2c1O`: the “activity change, negative = inhibition” value is “inactive”. With `CN(C)c1ccc(/C=C/c2nc3ccccc3c(=O)[nH]2)cc1`, the “activity change, negative = inhibition” value was “inactive”. Still for that read-out and setting: with `O=C(O)c1cc(-c2ccco2)nc2cc3ccccc3cc12` the entry was “inactive”; with `O=C(Nc1cccc2ncccc12)c1ccccc1[N+](=O)[O-]`, “inactive”; with `CNC(=O)c1cc2ccc(OC)cc2oc1=O`, “inactive”. Take `COCCNc1ncnc2nc[nH]c12`: the “activity change, negative = inhibition” value is “inactive”. On the same count and under the same terms, the entry for `Nc1nc(-c2ccc(Cl)cc2)nnc1-c1ccc(Br)cc1` is “inactive”; for `CN(C)c1ccc(/C=C(\C#N)C(=O)c2ccccc2)cc1` it is “inactive”. For `O=c1cc(-c2ccccc2Cl)oc2c(NS(=O)(=O)c3ccccc3OC(F)(F)F)ccc(O)c12`, the “activity change, negative = inhibition” value was “inactive”. Take `C[n+]1c2ccccc2nc2ccc(NCCO)cc21`: the “activity change, negative = inhibition” value was “inactive”.

In the case of `COc1ccc(NC(=O)c2cccs2)cn1`, the “activity change, negative = inhibition” value is “inactive”.

Take `Oc1ccc(C2C=C(c3ccc(F)cc3)Nc3ncnn32)cc1` (stereo not given): the “activity change, negative = inhibition” value is “inactive”.

Regarding `Cc1cc(C)c2ccc(C(=O)O)nc2c1O`, the “activity change, negative = inhibition” value is “inactive”. On the same count and under the same terms, the entry for `COc1ccc(CN2C(=O)NC(=O)/C(=C\c3ccco3)C2=O)cc1` is “inactive”. `Cc1ccc(-c2cc(C(=O)O)c3cc(Br)ccc3n2)o1`: the “activity change, negative = inhibition” value is “inactive”. For the compound `CCOC(=O)c1cnc(SCC(=O)NNC(=O)c2ccco2)nc1N`, the “activity change, negative = inhibition” value was “inactive”.

Regarding `COc1cccc(CNC23CC4CC(CC(C4)C2)C3)c1OCc1ccccc1`, the “activity change, negative = inhibition” value was “inactive”. With `CC(=O)N1CCc2c(sc(NC(=O)C3CCCN3S(=O)(=O)c3cccs3)c2C#N)C1` (stereo not given), the “activity change, negative = inhibition” value is “inactive”. For `Cc1ccc(C(=O)/C=C/c2ccccc2[N+](=O)[O-])cc1`, the “activity change, negative = inhibition” value was “inactive”. For `COc1cccc(NC(=O)CSc2nc3ccccc3nc2N2CCOCC2)c1`, the “activity change, negative = inhibition” value is “inactive”.

`COc1cc(/C=C2/C(C)=C(C#N)c3nc(N)c(C#N)c(C)c32)ccc1OCC(=O)O`: the “activity change, negative = inhibition” value is “inactive”. For the compound `CCN=c1scc(-c2ccco2)n1/N=C/c1ccc(O)cc1`, the “activity change, negative = inhibition” value is “inactive”. Take `CC1=CC2=NC(=O)/C(=C\c3cn(C)c4ccccc34)C(=N)N2O1`: the “activity change, negative = inhibition” value was “inactive”.

In the case of `Cc1nc2c3ccccc3nc(NNC(=O)CCC(=O)NC(C)C)n2n1`, the “activity change, negative = inhibition” value is “inactive”. As to `Cc1cccn2c(=O)c3cc(C(=O)NC(C)C)c(=N)n(Cc4ccncc4)c3nc12`, the “activity change, negative = inhibition” value is “inactive”. Still for that read-out and setting: with `CCn1c(C)nc2c1C(=O)c1ccccc1C2=O` the entry was “inactive”. For the compound `O=S1(=O)c2ccccc2N=NN1Cc1ccc(Cl)c(Cl)c1`, the “activity change, negative = inhibition” value is “inactive”. `Cn1ncc2c(NNC(=O)c3ccccc3Cl)ncnc21`: the “activity change, negative = inhibition” value is “inactive”. Regarding `Cc1cc(C)c2c3c(sc2n1)C(c1ccccc1)C(C#N)=C(N)O3` (stereo not given), the “activity change, negative = inhibition” value is “inactive”. In the case of `CCN(CC)c1ccc2nc3ccccc3[n+](CC)c2c1`, the “activity change, negative = inhibition” value is “inactive”.

As to `CC(=O)c1cc(NC(=O)c2ccc(C)cc2)c(=O)oc1C`, the “activity change, negative = inhibition” value is “inactive”. As for `CCS(=O)(=O)C1=NN2C(=N)/C(=C\c3ccc(SCc4ccco4)o3)C(=O)N=C2S1`, the “activity change, negative = inhibition” value is “inactive”.

With `CCOc1ccc(/C=C/C(=O)c2ccccc2)cc1`, the “activity change, negative = inhibition” value was “inactive”. The same measure, in the same setting: the entry for `CCc1ccc(/C=C2/C(=O)N(CC)C(=S)N2C)s1` is “inactive”. Same read-out and setting: the entry for `N[C@@H](Cc1ccccc1)C(=O)N1CCC(C(=O)NCC(=O)Nc2ccc(F)cc2)CC1` is “inactive”; for `COC(=O)COc1ccc(C2Nc3c(Cl)ccc(C(=O)O)c3C3C=CCC32)cc1` (stereo not given) it is “inactive”. For the compound `Nc1c(NCc2ccccc2)c(=O)[nH]c(=O)n1Cc1ccccc1`, the “activity change, negative = inhibition” value is “inactive”. On to `CCOc1nc(-c2ccccc2)c2cc(Br)ccc2n1`, for which the “activity change, negative = inhibition” value was “inactive”. As to `CC1=NN2C(=N)/C(=C\c3ccc(SCc4ccccc4)o3)C(=O)N=C2S1`, the “activity change, negative = inhibition” value is “inactive”. Regarding `CCc1ccc(N2C(=O)NC(=O)/C(=C/c3cccn3CCOc3ccc(C(C)CC)cc3)C2=O)cc1` (stereo not given), the “activity change, negative = inhibition” value was “inactive”. For the compound `CCOC(=O)NC(=O)COC(=O)c1ccc(Sc2ncn[nH]2)c([N+](=O)[O-])c1`, the “activity change, negative = inhibition” value is “inactive”. As to `Cc1c(CN2CCCC(C)C2)c(O)n(CCO)c(=O)c1C#N` (stereo not given), the “activity change, negative = inhibition” value is “inactive”. For `COC(=O)c1ccc(CC(=O)c2c(C)cc(O)cc2O)o1`, the “activity change, negative = inhibition” value was “inactive”. For the compound `CN(C)c1ccc(C(c2nnnn2CCOC(=O)Nc2ccc(Cl)cc2)N2CCOCC2)cc1` (stereo not given), the “activity change, negative = inhibition” value was “inactive”. On to `CN1CCc2c(sc(NC(=O)c3ccc(S(=O)(=O)N4CCCC4)cc3)c2C(N)=O)C1`, for which the “activity change, negative = inhibition” value is “inactive”. Consider `O=C(NNc1ccccc1)C(=O)NNS(=O)(=O)c1ccc(CCCl)cc1`, for which the “activity change, negative = inhibition” value is “inactive”. In the case of `N=c1c(C(=O)NCC2CCCO2)cc2c(=O)n3ccccc3nc2n1Cc1ccc(Cl)cc1` (stereo not given), the “activity change, negative = inhibition” value is “inactive”.

For the compound `COc1ccc2cc3c(N)c(C(=O)NCc4ccco4)sc3nc2c1`, the “activity change, negative = inhibition” value is “inactive”.

As to `Cc1cccc(NC(=O)c2sc3nc4c(c(-c5ccco5)c3c2N)CCC4)c1`, the “activity change, negative = inhibition” value is “inactive”. On the same count and under the same terms, the entry for `N#C/C(=N\Nc1cccc(C(F)(F)F)c1)C(=O)c1ccsc1` is “inactive”. Still for that read-out and setting: the entry for `Cc1ccc(N2C(=O)c3ccc(C(=O)O)cc3C2=O)cc1C` is “inactive”. With `O=c1[nH]c(=S)n(-c2ccccc2F)c(O)c1C=Nc1ccc(N2CCOCC2)cc1`, the “activity change, negative = inhibition” value was “inactive”. The same measure, in the same setting: the entry for `CCc1cc(-c2n[nH]c(C)c2-c2nc3ccccc3s2)c(O)cc1OCC(=O)NN` is “inactive”. Same read-out and setting: with `O=C(O)c1cccc(NC2=C(Cl)C(=O)c3ccccc3C2=O)c1` the entry was “inactive”; with `COc1ccc(-n2c(C)nc3cc(C(=O)O)ccc32)cc1`, “inactive”; with `COC(=O)/C=C1/S/C(=N/NC(=O)c2ccc(Cl)cc2Cl)NC1=O`, “inactive”. In the case of `COc1ccc(CCn2c(=N)c(C(=O)NCC3CCCO3)cc3c(=O)n4cccc(C)c4nc32)cc1` (stereo not given), the “activity change, negative = inhibition” value was “inactive”. Turning to `CCOC(=O)c1c(NS(=O)(=O)c2ccccc2)n(CCCOC)c2nc3ccccc3nc12`, the “activity change, negative = inhibition” value is “inactive”. `Cc1ccc(C)c(NC(=O)CCC(=O)NNC(=S)Nc2ccccc2)c1`: the “activity change, negative = inhibition” value is “inactive”. Regarding `CCOC(=O)c1c(-c2ccc(C)o2)csc1NC(=S)NC(=O)c1cccs1`, the “activity change, negative = inhibition” value is “inactive”. For `c1cncc(C2CC(c3cccs3)n3ncnc3N2)c1` (stereo not given), the “activity change, negative = inhibition” value was “inactive”. Turning to `O=C(O)/C=C/C(=O)NNc1ncnc2ccccc12`, the “activity change, negative = inhibition” value was “inactive”.

For the compound `Cc1c(C(=O)NNC(=S)Nc2ccc(S(N)(=O)=O)cc2)oc2ccccc12`, the “activity change, negative = inhibition” value is “inactive”. As to `O=C(O)c1cccc(-n2cccc2/C=C/[N+](=O)[O-])c1`, the “activity change, negative = inhibition” value is “inactive”. The same measure, in the same setting: with `CCOC(=O)C1C(=O)C=C(/C=C/c2ccc(N(C)C)cc2)CC1c1ccccc1` (stereo not given) the entry was “inactive”; with `Cc1c(C#N)c(O)[nH]c(=O)c1N=Nc1ccc(S(N)(=O)=O)cc1`, “inactive”. As for `CN1C(=O)/C(=C/c2cn(CC(=O)N3CCCCC3)c3ccccc23)c2ccccc21`, the “activity change, negative = inhibition” value was “inactive”. Take `O=Cc1ccc2ccc3cccnc3c2n1`: the “activity change, negative = inhibition” value is “inactive”. As for `COc1ccc(OC)c(-n2c(-c3cc(-c4ccco4)[nH]n3)n[nH]c2=S)c1`, the “activity change, negative = inhibition” value is “inactive”.

On to `CCOC(=O)c1c(=O)n(O)c2ccc(OC)cc2[n+]1[O-]`, for which the “activity change, negative = inhibition” value is “inactive”.
